Results as given in patent US9115159B2, “Phosphate compounds, a process for their preparation and pharmaceutical compositions containing them” (LES LABORATOIRES SERVIER, priority 2013, dated 2015).
Where “and” joins values, the source holds several entries; their conditions need not be identical. Equal entries are not always repeated.

How the values were obtained:
[1] = system: cleaved (activated) form of caspase 3; test: Quantification of the cleaved form of caspase 3 in vivo (MSD ELISA, RS4;11 xenograft tumour lysates); parameters: species or system mice (SCID strain); conditions: sampling time 2 hours, treated versus control mice
Protocol: The ability of the compounds of formula (I′) to activate caspase 3 is evaluated in a xenograft model of RS4;11 leukaemia cells.
1×10^7 RS4;11 cells are grafted sub-cutaneously into immunosuppressed mice (SCID strain). 25 to 30 days after the graft, the animals are treated orally with the various compounds. After treatment, the tumour masses are recovered and lysed, and the cleaved (activated) form of caspase 3 is quantified in the tumour lysates.
The quantification is carried out using the “Meso Scale Discovery (MSD) ELISA platform” test, which specifically assays the cleaved form of caspase 3. It is expressed in the form of an activation factor corresponding to the ratio between the quantity of cleaved caspase 3 in the treated mice divided by the quantity of cleaved caspase 3 in the control mice.
The ability of the compounds of formula (I) to activate caspase 3 is evaluated in a xenograft model of RS4;11 leukaemia cells in accordance with the protocol given in Example A2.

Solubility in water = assay type: physicochemical
Protocol: The solubility of compounds of formula (I) in water was measured and compared with that of compounds of formula (I′).
More specifically, 4-[{[3-(6-{[(3S)-3-(morpholin-4-ylmethyl)-3,4-dihydroisoquinolin-2(1H)-yl]carbonyl}-1,3-benzodioxol-5-yl)-5,6,7,8-tetrahydroindolizin-1-yl]carbonyl}-(phenyl)amino]phenyl disodium phosphate (also referred to as the compound of Example 1) was tested and compared to N-(4-hydroxyphenyl)-3-{6-[((3S)-3-(4-morpholinylmethyl)-3,4-dihydro-2(1H)-isoquinolinyl)carbonyl]-1,3-benzodioxol-5-yl}-N-phenyl-5,6,7,8-tetrahydro-1-indolizine carboxamide (also referred to as the drug from Example 1).
(§1) The solubilities of the compounds were also measured in a medium buffered to physiological pH (cf. Table 3).

[2] = Solubility in aqueous medium buffered to physiological pH (phosphate 0.33M, pH 7.4); assay type: physicochemical; conditions: phosphate 0.33M, pH = 7.4
Protocol: as §1

[3] = Pharmacokinetic profile / in vivo conversion after oral administration to SCID mice (plasma, LC-MS/MS); parameters: species or system female SCID mice
Protocol: The pharmacokinetic profile of the phosphate compounds of formula (I) is evaluated in a lipid formulation and in aqueous solution in female SCID mice. This is compared to the pharmacokinetic profile of compounds of formula (I′) in a lipid formulation. More specifically, 4-[{[3-(6-{[(3S)-3-(morpholin-4-ylmethyl)-3,4-dihydroisoquinolin-2(1H)-yl]-carbonyl}-1,3-benzodioxol-5-yl)-5,6,7,8-tetrahydroindolizin-1-yl]carbonyl}(phenyl)-amino]phenyl disodium phosphate (also referred to as the compound of Example 1) was tested and compared to N-(4-hydroxyphenyl)-3-{6-[((3S)-3-(4-morpholinylmethyl)-3,4-dihydro-2(1H)-isoquinolinyl)carbonyl]-1,3-benzodioxol-5-yl}-N-phenyl-5,6,7,8-tetrahydro-1-indolizine carboxamide (also referred to as the drug from Example 1).
The compound of Example 1 is prepared in a mixture of anhydrous ethanol/polyethylene glycol 300/water (10/40/50, v/v/v) intended for administration by the p.o. route. The study is carried out in 2 groups of SCID mice to which the compound of Example 1 is administered under the following conditions: • Group 1: 3 mg/kg p.o. (gavage, 10 mL/kg), • Group 2: 25 mg/kg p.o. (gavage, 10 mL/kg).
Blood samples are taken at the following points in time (3 samples per animal and 3 animals for each point in time): 0.25 hr, 0.5 hr, 1 hr, 2 hrs, 6 hrs and 24 hrs after oral administration.
The compound of Example 1 is also administered by the oral route in an aqueous medium to SCID mice, under the following conditions: • Group 1: 30 mg/kg p.o. dissolved in 1 mM sodium carbonate solution (gavage, 10 mL/kg), • Group 2: 100 mg/kg p.o. in water (gavage, 10 mL/kg).
Blood samples are taken at the following points in time (3 animals for each point in time and 1 sample per animal): 0.25 hr, 0.5 hr, 1 hr, 2 hrs, 4 hrs, 6 hrs and 24 hrs after oral administration.
For all formulations of the compound of Example 1, the blood thereby collected is centrifuged and the plasma is transferred to tubes containing 1M hydrochloric acid. The plasma concentrations of the phosphate compound (prodrug) and its hydroxylated homologue (drug) are determined simultaneously using a method of liquid chromatography coupled with mass spectrometric detection (TFC-LC-MS/MS). The limit of detection for both entities is 0.5 ng/mL.
The drug from Example 1 is prepared in a mixture of anhydrous ethanol/polyethylene glycol 300/water (10/40/50, v/v/v) intended for administration by the p.o. route. The study is carried out in several groups of SCID mice to which the drug from Example 1 is administered under the following conditions: • Group 1: 3 mg/kg p.o. (gavage, 10 mL/kg), • Group 2: 30 mg/kg p.o. (gavage, 10 mL/kg), • Group 3: 25 mg/kg p.o. (gavage, 10 mL/kg), • Group 4: 100 mg/kg p.o. (gavage, 10 mL/kg).
Blood samples are taken at the following points in time (3 animals for each point in time and 3 samples per animal for Groups 1-2 and 1 sample per animal for Groups 3 and 4): • p.o.: before administration and then 0.25 hr, 0.5 hr, 0.75 hr, 1 hr, 2 hrs, 4 hrs, 6 hrs, 8 hrs, 16 hrs and 24 hrs after oral administration at 3 and 30 mg/kg, • p.o.: 0.5 hr, 2 hrs, 6 hrs, 16 hrs and 24 hrs after oral administration at 25 mg/kg and 0.5 hr, 1 hr, 2 hrs, 6 hrs, 16 hrs, 30 hrs and 48 hrs after oral administration at 100 mg/kg.
The plasma from the blood samples collected after administration of the lipid formulations of the drug from the compound of Example 1 are analysed by liquid chromatography coupled with mass spectrometric detection. The limit of quantification of the drug from the compound of Example 1 is less than or equal to 0.5 ng/mL.
Non-compartmental pharmacokinetic analysis is carried out on the mean values of the plasma concentrations of the compounds tested. […]

human Caco-2 cells = test: In vitro test on human Caco-2 cells, cellular transport A to B; assay type: in vitro ADME; conditions: prodrug incubated, 120 minutes; for Yield (experiment yield), the drug after incubation of the prodrug / Fabs (predicted absorbed fraction in humans), the drug after incubation of the prodrug: corresponding drug measured; for Fabs (predicted absorbed fraction in humans), the drug after incubation of the prodrug: 1 or 3 μM; for Yield (experiment yield), compound measured: the prodrug itself: total amount found at the end versus incubated
Protocol: The cellular transport from A to B (Apical to Basolateral) of the phosphate compounds of formula (I) and the compounds of formula (I′) (corresponding drugs) is studied in human Caco-2 cells. Each compound is deposited apically at 1 or 3 μM (in duplicate) and then incubated for 120 minutes.
Several samples are taken during the experiment; • apically: immediately after deposition (t=0) and at 120 minutes • basolaterally: at the end of the experiment (120 minutes)
The concentrations of the phosphate compound (prodrug) and/or of its hydroxylated homologue (drug) are determined by liquid chromatography coupled with mass spectrometric detection (LC-MS/MS). The limit of quantification for both entities is 2 ng/mL.
The apparent permeability (Papp) and the predicted absorbed fraction (Fabs) in humans are calculated for the prodrug, for the drug after incubation of the prodrug and for the drug after incubation of the drug (Hubatsch et al, Nat Protoc. 2007; 2(9), 2111-2119).
The experiment yield, which corresponds to the ratio (in percent) of the total amount of compound found at the end of the experiment versus that incubated, is also calculated.

[4] = Example 1 administered 3 mg/kg p.o., lipid formulation
[5] = Example 1 administered 25 mg/kg p.o., lipid formulation
[6] = Example 1 administered 30 mg/kg p.o., aqueous formulation (1 mM sodium carbonate solution)
[7] = Example 1 administered 100 mg/kg p.o., aqueous formulation (in water)

In the case of `O=C(c1cc(-c2cc3c(cc2C(=O)N2Cc4ccccc4C[C@H]2CN2CCOCC2)OCO3)n2c1CCCC2)N(c1ccccc1)c1ccc(OP(=O)([O-])[O-])cc1.[Na+].[Na+]` [Example 1, 4-[{[3-(6-{[(3S)-3-(Morpholin-4-ylmethyl)-3,4-dihydroisoquinolin-2(1H)-yl]carbonyl}-1,3-benzodioxol-5-yl)-5,6,7,8-tetrahydroindolizin-1-yl]carbonyl}(phenyl)amino]phenyl disodium phosphate], the “Activation factor +/− S.E.M.” value ([1]; Table 2, 50 mg/kg oral) is reported as 21.2 +/− 1.3, the solubility in water (Solubility in water) is reported as “greater than or equal to 10 mg/mL and ≥ 12.6 mM” and the “Solubility at 10 μM” value ([2]; 10 μM) is reported as “Soluble”. The “Solubility at 20 μM” value ([2]; 20 μM) was “Soluble”, the “Solubility at 50 μM” value ([2]; 50 μM) was “Soluble” and the “Solubility at 100 μM” value ([2]; 100 μM) was “Soluble”. For the same compound, the “AUCt, compound measured: Example 1” value [3, 4] was “AUCt (ng · h/mL) = 5”, the “Tmax, compound measured: Example 1” value [3, 4] was “Tmax (h) = 0.25” and the “Cmax, compound measured: Example 1” value ([3]; Example 1 administered 3 mg/kg p.o., lipid formulation (ethanol/PEG 300/water 10/40/50)) was “Cmax (ng/mL) = 16”. The “AUCt, compound measured: Example 1” value [3, 5] was “AUCt (ng · h/mL) = 92”, the “Cmax, compound measured: Example 1” value [3, 5] was “Cmax (ng/mL) = 244” and the “Tmax, compound measured: Example 1” value [3, 5] was “Tmax (h) = 0.25”. For the same compound, the “AUCt, compound measured: Example 1” value [3, 6] was “AUCt (ng · h/mL) = 879”, the “Cmax, compound measured: Example 1” value [3, 6] was “Cmax (ng/mL) = 391” and the “Tmax, compound measured: Example 1” value [3, 6] was “Tmax (h) = 1.0”. For the same compound, the “AUCt, compound measured: Example 1” value [3, 7] was “AUCt (ng · h/mL) = 797”, the “Cmax, compound measured: Example 1” value [3, 7] was “Cmax (ng/mL) = 359” and the “Tmax, compound measured: Example 1” value [3, 7] was “Tmax (h) = 2.0”. The “Yield (experiment yield), the drug after incubation of the prodrug” value (human Caco-2 cells) was “Yield (%) = 42”, the “Fabs (predicted absorbed fraction in humans), the drug after incubation of the prodrug” value (human Caco-2 cells; A to B) was “Fabs (%) = 71” and the “Papp, compound measured: the prodrug itself” value (human Caco-2 cells; A to B, deposited apically at 1 or 3 μM) was “Papp (10^−6 cm/s) = 0.01”. The “Yield (experiment yield), compound measured: the prodrug itself” value (human Caco-2 cells) was “Yield (%) = 0”.

For `Cc1c(C(=O)N(c2ccc(OP(=O)([O-])[O-])cc2)c2cnn(C)c2)cc(-c2cc(Cl)ccc2C(=O)N2Cc3ccccc3C[C@H]2CN2CCOCC2)n1C.[Na+].[Na+]` [Example 24, 4-[{[5-(5-Chloro-2-{[(3S)-3-(morpholin-4-ylmethyl)-3,4-dihydroisoquinolin-2(1H)-yl]carbonyl}phenyl)-1,2-dimethyl-1H-pyrrol-3-yl]carbonyl}(1-methyl-1H-pyrazol-4-yl)amino]phenyl disodium phosphate], the “Activation factor +/− S.E.M.” value ([1]; Table 2, 25 mg/kg oral) was 60.5 +/− 4.5.

In the case of `Cc1c(C(=O)N(c2ccc(OP(=O)([O-])[O-])cc2)c2cc(C#N)n(C)c2)cc(-c2cc(Cl)ccc2C(=O)N2Cc3ccccc3C[C@H]2CN2CCOCC2)n1C.[Na+].[Na+]` [Example 21, 4-[{[5-(5-Chloro-2-{[(3S)-3-(morpholin-4-ylmethyl)-3,4-dihydroisoquinolin-2(1H)-yl]carbonyl}phenyl)-1,2-dimethyl-1H-pyrrol-3-yl]carbonyl}(5-cyano-1-methyl-1H-pyrrol-3-yl)amino]phenyl disodium phosphate], the “Activation factor +/− S.E.M.” value ([1]; Table 2, 25 mg/kg oral) is reported as 55.2 +/− 6.2, the “Yield (experiment yield), the drug after incubation of the prodrug” value (human Caco-2 cells) is reported as “Yield (%) = 100” and the “Fabs (predicted absorbed fraction in humans), the drug after incubation of the prodrug” value (human Caco-2 cells; A to B) is reported as “Fabs (%) = 19”. The “Yield (experiment yield), compound measured: the prodrug itself” value (human Caco-2 cells) was “Yield (%) = 0.83”.
